Assay [1] has as its target T1, PfHsp70-z (Plasmodium falciparum, UniProt Q8IC01). The assay can be described thus: Suppression of heat-induced aggregation of MDH (chaperone function). The assay is classed as biochemical. As to conditions: 48 °C; for effect on chaperone activity (MDH aggregation): 5 mM ADP/ATP. The method, then: (§1) The chaperone function of parasite Hsp70s was investigated by monitoring heat-induced aggregation of a model protein, malate dehydrogenase (MDH) from porcine heart (Sigma-Aldrich), as previously described, with minor modifications. Before conducting the assays, we first established that both purified preparations of PfHsp70-1 and PfHsp70-z were heat-stable at 48 °C. After this, we then investigated the effects of the chaperones (PfHsp70-1/PfHsp70-z) on the heat-induced aggregation of MDH. To determine the effects of EGCG on the chaperone function of the two proteins, the assay was repeated in the presence of 2.5 µM of EGCG. EGCG was used at this concentration (2.5 µM) because this was the lowest concentration at which it inhibited the function of the chaperones. […] For statistical analysis, a one-way ANOVA test was conducted using GraphPad Prism 6 (San Diego, CA, USA).

Assay [2] addresses T2, PfHsp70-1 (Plasmodium falciparum, UniProt Q8IB24). Described as above. Conditions: 48 °C; for effect on chaperone activity (MDH aggregation): 5 mM ADP/ATP. The format is biochemical. The procedure: as §1
The test system of the next assay is P. falciparum 3D7. Kind of assay: Antiplasmodial pLDH growth inhibition assay. The format is cell-based. Conditions: Plasmodium falciparum. The method, then: P. falciparum 3D7 parasites were grown and maintained in continuous culture, as previously described, with minor modifications. The growth of P. falciparum 3D7-infected erythrocytes subjected to treatment with varying amounts (0, 0.156, 0.3125, 0.625, 1.25, 2.5, and 5 μM) of EGCG was monitored using the P. falciparum lactate dehydrogenase (pLDH) method, as previously described. As a control, Chloroquine, a known antimalarial drug, was used as a positive control in the assay. Serially-diluted EGCG was added to each culture batch. Uninfected erythrocytes that were similarly treated with EGCG were included to cater for possible lysis of erythrocytes exposed to EGCG. A blank consisting of media and EGCG was also set up. P. falciparum 3D7-infected erythrocytes that were not exposed to EGCG treatment were used as the viability control, representing ‘100% growth’. Analysis of the growth inhibition assay data was carried out using GraphPad Prism 6 (San Diego, CA, USA). The assay was repeated three times.

The target in assay [3] is T1, PfHsp70-z. The assay can be described thus: Tryptophan/tyrosine fluorescence, tertiary conformation. As to conditions: EGCG 0–5 μM. The method, then:
(§2) We further exposed the two proteins to varying amounts (0–5 µM) of EGCG and monitored he perturbation of the tertiary structural conformations of the proteins using both tyrosine and tryptophan fluorescence, as previously described. The respective recombinant protein (PfHsp70-1 of PfHsp70-z) at a final concentration of 0.45 μg/mL was incubated in assay buffer A (25 mM HEPES-KOH pH 7.5, 100 mM KCl, 10 mM MgOAc) at 20 °C either in the absence or presence of variable EGCG levels (0–5 μM). […] Tryptophan fluorescence spectra were recorded between 300 nm and 400 nm after initial excitation at 295 nm using a JASCO FP-6300 spectrofluorometer (Dunmow, UK). The combined fluorescence of tyrosine and tryptophan was monitored after initial excitation at 285 nm. Subsequently, fluorescence was monitored at wavelengths between 300 nm and 400 nm using a JASCO FP-6300 spectrofluorometer. The resultant spectra were averaged for least 15 scans and processed after subtraction of the baseline scan (buffer in which protein was excluded). A control consisting of a buffer containing EGCG, but lacking protein was used to account for baseline fluorescence.

For assay [4], the target named is T2, PfHsp70-1. The assay is described as above. Conditions: EGCG 0–5 μM. The method, then: as §2
Assay [5] addresses T1, PfHsp70-z. Kind of assay: SPR binding affinity to immobilised PfHsp70-z. As to conditions: EGCG vs ATP binding to PfHsp70-z. The procedure:
(§3) The binding affinity of EGCG for the two P. falciparum Hsp70s was determined using a Bio-Rad ProteOn XPR36 system (Hercules, CA, USA), as previously described. Briefly, PfHsp70-1, PfHsp70-1NBD, and PfHsp70-z (as ligands) were separately immobilized onto an HTE chip at concentrations of 0.5 μg/mL and 1 μg/mL, respectively, in order to validate the data. […] In order to determine the association of EGCG with the respective ligand, the EGCG stock solution was prepared in deionised water. Aliquots of EGCG were prepared at final concentrations of 0, 125, 250, 500, 1000, and 2000 nM and injected at 100 μL/min into each horizontal channel. Association was allowed for 2 min and dissociation was monitored for 8 min. Data collected was double referenced using a buffer blank (buffer without EGCG) and a channel in which protein was excluded. Steady-state equilibrium constant data were processed and analysed using BioRad ProteOn Manager Version 3.1.0.6 (Hercules, CA, USA) and GE Healthcare Biosciences BIA evaluation Version 4.1.1 software (Uppsala, Sweden).
For orientation: In SPR one partner is held on a chip, and binding of the other changes the refractive index at the surface.

Assay [6] concerns the target T1, PfHsp70-z. The assay can be described thus: Basal ATPase activity, colourimetric Pi release. The format is biochemical. The procedure: (§4) The basal ATPase activities of the parasite Hsp70s was assessed by a colourimetric-based method, as previously described. Briefly, 0.4 µM of recombinant proteins (PfHsp70-1/PfHsp70-z) was incubated in buffer HKMD (10 mM HEPES-KOH pH 7.5, 100 mM KCl, 2 mM MgCl2, 0.5 mM DTT) at 37 °C. […] The released inorganic phosphate was detected by adding 1.25% ammonium molybdate and 9% ascorbic acid and monitored using a M3 SpectraMax (Molecular Devices, Sunnyvale, CA, USA) spectrophotometer at 660 nm. To determine the effect of EGCG on the ATPase activity of parasite Hsp70s, the assay was repeated in the presence of varying amounts (0–5 µM) of EGCG.

The target in assay [7] is T2, PfHsp70-1. Kind of assay: Basal ATPase activity, colourimetric Pi release. The assay is classed as biochemical. The method, then:
as §4

The target of assay [8] is T2, PfHsp70-1. The assay can be described thus: SPR binding affinity to immobilised PfHsp70-1. As to conditions: EGCG vs ATP binding to PfHsp70-1. The method, then: as §3

Four molecules from publication PMC6149709, “(−)-Epigallocatechin-3-Gallate Inhibits the Chaperone Activity of Plasmodium falciparum Hsp70 Chaperones and Abrogates Their Association with Functional Partners” (Molecules : A Journal of Synthetic Chemistry and Natural …, 2017) can be followed below.

The structures appear in SMILES notation. Where two headings read alike, the source gives them in different places.

T2 sequence (Q8IB24 entry or part of it): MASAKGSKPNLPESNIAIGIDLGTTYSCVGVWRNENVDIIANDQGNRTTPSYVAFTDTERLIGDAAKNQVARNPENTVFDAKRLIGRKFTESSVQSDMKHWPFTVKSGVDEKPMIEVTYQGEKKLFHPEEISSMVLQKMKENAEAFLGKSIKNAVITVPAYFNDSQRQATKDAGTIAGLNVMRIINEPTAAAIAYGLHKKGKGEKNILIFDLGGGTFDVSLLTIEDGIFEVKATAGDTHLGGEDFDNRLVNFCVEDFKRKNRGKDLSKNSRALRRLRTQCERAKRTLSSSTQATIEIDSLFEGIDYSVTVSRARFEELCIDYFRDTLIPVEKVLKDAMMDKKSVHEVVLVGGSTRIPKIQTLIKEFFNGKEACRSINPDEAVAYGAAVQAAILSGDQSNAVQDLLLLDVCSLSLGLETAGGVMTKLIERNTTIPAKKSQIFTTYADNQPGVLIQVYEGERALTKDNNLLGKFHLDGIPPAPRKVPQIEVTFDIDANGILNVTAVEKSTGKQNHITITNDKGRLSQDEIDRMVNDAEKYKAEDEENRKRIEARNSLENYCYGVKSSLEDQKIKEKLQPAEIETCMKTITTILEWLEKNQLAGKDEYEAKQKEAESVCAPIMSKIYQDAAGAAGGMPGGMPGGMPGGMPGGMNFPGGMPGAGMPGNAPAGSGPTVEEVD
T1 sequence (Q8IC01 entry or part of it): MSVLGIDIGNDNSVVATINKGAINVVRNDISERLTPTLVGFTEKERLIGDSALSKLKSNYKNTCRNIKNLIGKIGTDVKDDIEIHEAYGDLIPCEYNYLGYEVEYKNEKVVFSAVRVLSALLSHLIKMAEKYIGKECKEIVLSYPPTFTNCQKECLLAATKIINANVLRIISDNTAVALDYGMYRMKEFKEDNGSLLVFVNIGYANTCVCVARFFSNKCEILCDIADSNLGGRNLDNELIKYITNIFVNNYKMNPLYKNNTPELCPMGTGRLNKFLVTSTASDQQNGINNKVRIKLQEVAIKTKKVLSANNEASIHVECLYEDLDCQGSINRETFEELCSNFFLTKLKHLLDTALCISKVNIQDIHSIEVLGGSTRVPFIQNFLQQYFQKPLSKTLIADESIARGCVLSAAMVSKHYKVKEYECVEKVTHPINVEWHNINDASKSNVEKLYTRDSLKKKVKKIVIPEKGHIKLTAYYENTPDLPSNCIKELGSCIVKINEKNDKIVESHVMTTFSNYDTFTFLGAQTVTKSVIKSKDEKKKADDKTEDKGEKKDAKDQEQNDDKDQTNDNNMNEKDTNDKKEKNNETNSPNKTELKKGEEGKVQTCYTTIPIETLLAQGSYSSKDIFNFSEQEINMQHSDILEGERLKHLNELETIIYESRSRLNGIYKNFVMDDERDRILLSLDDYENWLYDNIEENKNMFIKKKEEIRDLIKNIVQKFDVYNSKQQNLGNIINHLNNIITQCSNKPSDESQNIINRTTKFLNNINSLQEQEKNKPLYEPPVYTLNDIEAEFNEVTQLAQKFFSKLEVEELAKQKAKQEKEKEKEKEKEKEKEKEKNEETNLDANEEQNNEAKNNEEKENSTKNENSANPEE

On to `Nc1ncnc2c1ncn2[C@@H]1O[C@H](COP(=O)(O)OP(=O)(O)OP(=O)(O)O)[C@@H](O)[C@H]1O` [ATP], for which the “effect on chaperone activity (MDH aggregation)” value at PfHsp70-z [1] is “not affecting the activity”; at PfHsp70-1 [2], “did inhibit the activity”.
Regarding `CCN(CC)CCCC(C)Nc1ccnc2cc(Cl)ccc12` (stereo not shown) [chloroquine], in the assay on P. falciparum 3D7 (3D7, read-out: IC50 parasite growth), the IC50 (as a rule, the concentration at which inhibition is half-maximal) came to 8.5 nM.
Regarding `Nc1ncnc2c1ncn2[C@@H]1O[C@H](COP(=O)(O)OP(=O)(O)O)[C@@H](O)[C@H]1O` [ADP], the “effect on chaperone activity (MDH aggregation)” value on PfHsp70-z [1] and at PfHsp70-1 [2] was “did not alter the chaperone activity” throughout.
Take `O=C(O[C@@H]1Cc2c(O)cc(O)cc2O[C@@H]1c1cc(O)c(O)c(O)c1)c1cc(O)c(O)c(O)c1` [EGCG, (−)-Epigallocatechin-3-gallate]: the “shift of peak wavelength, tryptophan and tyrosine fluorescence” value on PfHsp70-z [3] and on PfHsp70-1 [4] was “red shift” throughout. Further, in the assay on P. falciparum 3D7 (3D7, blood stages, pLDH, read-out: IC50 parasite growth), the 50% inhibitory concentration (IC50) came out at 2900 nM. The “fold higher affinity than ATP” value at PfHsp70-z [5] and at PfHsp70-1 [8] was “approximately 10 fold” each time. Further, the Ki (usually the dissociation constant of the complex between target and ligand, obtained from inhibition or displacement) on PfHsp70-z [6] came to 2340 nM; at PfHsp70-1 [7], 1720 nM. In addition, the Vmax is listed as 20.58 (±0.5) nmol/min/mg at PfHsp70-z [6] (EGCG 0.156 μM); 18.46 (±0.3) nmol/min/mg at PfHsp70-z [6] (EGCG 0.3125 μM); 19.66 (±0.5) nmol/min/mg at PfHsp70-z [6] (EGCG 0.625 μM); 21.26 (±0.9) nmol/min/mg on PfHsp70-z [6] (EGCG 1.25 μM); 18.88 (±0.6) nmol/min/mg at PfHsp70-z [6] (EGCG 2.5 μM); 17.57 (±0.3) nmol/min/mg at PfHsp70-z [6] (EGCG 5.0 μM). Besides, the Vmax at PfHsp70-1 [7] (EGCG 0.156 μM) is given as 28.22 (±1.5) nmol/min/mg; on PfHsp70-1 [7] (EGCG 0.3125 μM) it was 29.03 (±0.7) nmol/min/mg; on PfHsp70-1 [7] (EGCG 0.625 μM) it was 28.40 (±0.95) nmol/min/mg; at PfHsp70-1 [7] (EGCG 1.25 μM) it was 27.47 (±2.01) nmol/min/mg; on PfHsp70-1 [7] (EGCG 2.5 μM), 29.04 (±0.6) nmol/min/mg; at PfHsp70-1 [7] (EGCG 5.0 μM), 30.06 (±0.5) nmol/min/mg. Besides, the “effect on capability to suppress heat-induced aggregation of MDH” value at PfHsp70-z [1] (2.5 µM EGCG) and on PfHsp70-1 [2] (2.5 µM EGCG) was “abrogated” in each case. The “lowest concentration at which it inhibited the function of the chaperones” value at PfHsp70-z [1] (MDH aggregation) and at PfHsp70-1 [2] (MDH aggregation) was 2.5 µM each time.
